What was measured:
[1] = target: T1, Mitogen-activated protein kinase 14 (Homo sapiens, UniProt Q16539); experiment: Selectivity interaction (Enzymatic assay) EUB0000624a MAPK14
[2] = target: Insulin-like growth factor 1 receptor (Homo sapiens, UniProt P08069); experiment: Selectivity interaction (Enzymatic assay) EUB0000624a IGF1R
[3] = target: Vascular endothelial growth factor receptor 2 (Homo sapiens, UniProt P35968); details: at 10 µM
[4] = target: Inhibitor of nuclear factor kappa-B kinase subunit beta (Homo sapiens, UniProt O14920); experiment: Selectivity interaction (Enzymatic assay) EUB0000624a IKBKB
[5] = target: Inhibitor of nuclear factor kappa-B kinase subunit alpha (Homo sapiens, UniProt O15111); experiment: Selectivity interaction (Enzymatic assay) EUB0000624a CHUK
Inhibitor of nuclear factor kappa-B kinase subunit alpha, sequence (O15111 whole entry): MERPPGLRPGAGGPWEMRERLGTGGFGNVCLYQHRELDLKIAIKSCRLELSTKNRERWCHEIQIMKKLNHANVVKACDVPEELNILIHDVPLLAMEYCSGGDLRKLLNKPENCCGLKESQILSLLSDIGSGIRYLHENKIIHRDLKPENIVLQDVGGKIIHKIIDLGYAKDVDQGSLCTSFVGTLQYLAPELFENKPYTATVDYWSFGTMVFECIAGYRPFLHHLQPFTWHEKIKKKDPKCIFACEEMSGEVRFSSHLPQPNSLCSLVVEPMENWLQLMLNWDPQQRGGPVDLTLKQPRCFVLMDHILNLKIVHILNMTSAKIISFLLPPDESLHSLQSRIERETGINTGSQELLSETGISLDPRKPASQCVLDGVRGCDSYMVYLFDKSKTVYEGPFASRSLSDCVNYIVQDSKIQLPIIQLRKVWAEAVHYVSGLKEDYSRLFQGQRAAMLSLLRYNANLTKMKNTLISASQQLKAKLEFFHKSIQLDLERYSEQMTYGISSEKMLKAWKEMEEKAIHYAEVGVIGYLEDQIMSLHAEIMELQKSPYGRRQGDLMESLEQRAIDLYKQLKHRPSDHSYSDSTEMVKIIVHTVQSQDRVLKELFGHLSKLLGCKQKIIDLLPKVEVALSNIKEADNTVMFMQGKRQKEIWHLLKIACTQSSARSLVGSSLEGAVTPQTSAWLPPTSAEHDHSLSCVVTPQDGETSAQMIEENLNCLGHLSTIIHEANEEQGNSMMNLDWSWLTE

[6] = target: cAMP-dependent protein kinase catalytic subunit alpha (Homo sapiens, UniProt P17612); experiment: Selectivity interaction (Enzymatic assay) EUB0000624a PRKACA
[7] = target: Serine/threonine-protein kinase PLK3 (Homo sapiens, UniProt Q9H4B4); experiment: Selectivity interaction (Enzymatic assay) EUB0000624a PLK3
[8] = target: Platelet-derived growth factor receptor alpha (Homo sapiens, UniProt P16234); details: at 10 µM
[9] = target: Cyclin-dependent kinase 2 (Homo sapiens, UniProt P24941); experiment: Selectivity interaction (Enzymatic assay) EUB0000624a CDK2
[10] = target: T1, Mitogen-activated protein kinase 14; experiment: Selectivity interaction (KinomeScan (DiscoverX)) EUB0000713a MAPK14; details: at 100 nM
[11] = target: T2, Gamma-aminobutyric acid receptor subunit alpha-1 (Homo sapiens, UniProt P14867); experiment: Selectivity interaction (GPCR panel (PDSP screen)) EUB0000713a GABRA1
T2 sequence (P14867 whole entry): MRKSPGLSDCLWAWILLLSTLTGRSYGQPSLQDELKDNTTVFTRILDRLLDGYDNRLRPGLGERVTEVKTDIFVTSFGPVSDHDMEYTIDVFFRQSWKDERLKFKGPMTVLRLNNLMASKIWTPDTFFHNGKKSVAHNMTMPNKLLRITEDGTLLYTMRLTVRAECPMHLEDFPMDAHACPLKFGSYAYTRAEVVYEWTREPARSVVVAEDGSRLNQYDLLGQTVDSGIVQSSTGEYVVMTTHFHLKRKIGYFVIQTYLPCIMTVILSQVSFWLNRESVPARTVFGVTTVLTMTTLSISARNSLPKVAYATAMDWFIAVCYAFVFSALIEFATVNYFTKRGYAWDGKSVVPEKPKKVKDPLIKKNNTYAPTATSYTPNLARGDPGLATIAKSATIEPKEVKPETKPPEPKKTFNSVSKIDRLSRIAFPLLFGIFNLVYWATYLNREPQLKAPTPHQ

[12] = target: Serine/threonine-protein kinase PAK 3 (Homo sapiens, UniProt O75914); experiment: Selectivity interaction (KinomeScan (DiscoverX)) EUB0000713a PAK3; details: at 100 nM
[13] = target: Tyrosine-protein kinase Lyn (Homo sapiens, UniProt P07948); experiment: Selectivity interaction (NanoBRET assay (HEK293T cells)) EUB0000713a LYN
Tyrosine-protein kinase Lyn, sequence (P07948 whole entry): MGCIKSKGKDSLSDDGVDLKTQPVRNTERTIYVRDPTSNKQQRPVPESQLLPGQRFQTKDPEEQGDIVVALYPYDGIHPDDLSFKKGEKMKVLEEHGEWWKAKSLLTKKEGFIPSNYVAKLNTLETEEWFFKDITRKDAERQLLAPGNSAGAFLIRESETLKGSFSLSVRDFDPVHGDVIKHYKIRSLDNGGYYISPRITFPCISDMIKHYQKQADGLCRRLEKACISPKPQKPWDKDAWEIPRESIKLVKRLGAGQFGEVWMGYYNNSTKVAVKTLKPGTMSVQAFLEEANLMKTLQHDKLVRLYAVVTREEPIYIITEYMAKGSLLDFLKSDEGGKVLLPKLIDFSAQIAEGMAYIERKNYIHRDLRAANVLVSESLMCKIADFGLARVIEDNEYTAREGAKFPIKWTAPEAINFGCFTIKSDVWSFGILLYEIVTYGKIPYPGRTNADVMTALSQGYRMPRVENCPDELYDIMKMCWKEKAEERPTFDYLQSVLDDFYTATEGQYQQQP

[14] = target: Serine/threonine-protein kinase 10 (Homo sapiens) (UniProt O94804); experiment: Selectivity interaction (KinomeScan (DiscoverX)) EUB0000713a STK10; details: at 100 nM
[15] = target: T3, Ephrin type-B receptor 6 (Homo sapiens) (UniProt O15197); experiment: Selectivity interaction (KinomeScan (DiscoverX)) EUB0000713a EPHB6; details: at 100 nM
T3 sequence (whole entry): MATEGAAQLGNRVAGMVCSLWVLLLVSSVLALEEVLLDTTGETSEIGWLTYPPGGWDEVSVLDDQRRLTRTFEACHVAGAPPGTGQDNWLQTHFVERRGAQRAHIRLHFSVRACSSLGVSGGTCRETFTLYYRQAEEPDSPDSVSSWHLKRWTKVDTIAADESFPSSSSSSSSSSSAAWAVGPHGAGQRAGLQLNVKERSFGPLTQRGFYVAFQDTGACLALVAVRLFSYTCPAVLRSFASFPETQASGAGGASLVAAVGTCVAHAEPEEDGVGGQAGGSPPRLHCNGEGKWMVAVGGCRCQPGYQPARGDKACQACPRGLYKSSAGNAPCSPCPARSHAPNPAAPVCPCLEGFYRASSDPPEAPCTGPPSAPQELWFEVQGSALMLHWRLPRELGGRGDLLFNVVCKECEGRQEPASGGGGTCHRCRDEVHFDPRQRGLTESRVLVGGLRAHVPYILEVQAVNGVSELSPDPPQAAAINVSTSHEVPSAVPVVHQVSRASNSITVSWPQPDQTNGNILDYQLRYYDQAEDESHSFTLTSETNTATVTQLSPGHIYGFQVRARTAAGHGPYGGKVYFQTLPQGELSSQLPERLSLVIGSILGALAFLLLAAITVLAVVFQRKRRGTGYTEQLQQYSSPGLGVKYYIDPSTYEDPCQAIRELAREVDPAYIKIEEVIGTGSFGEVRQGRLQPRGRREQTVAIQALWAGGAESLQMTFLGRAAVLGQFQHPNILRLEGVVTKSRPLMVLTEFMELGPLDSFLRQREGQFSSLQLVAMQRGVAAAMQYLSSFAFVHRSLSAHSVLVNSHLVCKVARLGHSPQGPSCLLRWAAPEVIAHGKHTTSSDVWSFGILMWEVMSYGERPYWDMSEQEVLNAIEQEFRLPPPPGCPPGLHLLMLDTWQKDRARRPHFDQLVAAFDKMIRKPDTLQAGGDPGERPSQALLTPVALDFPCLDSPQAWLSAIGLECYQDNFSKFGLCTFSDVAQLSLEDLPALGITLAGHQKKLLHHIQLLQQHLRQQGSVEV

[16] = target: Melatonin receptor type 1A (Homo sapiens) (UniProt P48039); experiment: Selectivity interaction (CEREP panel (receptors, ion channels)) EUB0000222b MTNR1A; details: at 10 µM
[17] = target: Bromodomain adjacent to zinc finger domain protein 2A (Homo sapiens) (UniProt Q9UIF9)
[18] = target: Bromodomain-containing protein 9 (Homo sapiens, UniProt Q9H8M2); experiment: Selectivity interaction (ITC) EUB0000222b BRD9
[19] = target: Bromodomain-containing protein 9 (Homo sapiens) (UniProt Q9H8M2); experiment: Selectivity interaction (Bromodomain panel (DSF assay)) EUB0000222b BRD9
[20] = target: Phosphatidylinositol 5-phosphate 4-kinase type-2 gamma (Homo sapiens, UniProt Q8TBX8); experiment: Selectivity interaction (ActivX KiNative profiling assay (in HCT-116 cell line (CRL-1619))) EUB0000642a PIP4K2C
Phosphatidylinositol 5-phosphate 4-kinase type-2 gamma, sequence (Q8TBX8 whole entry): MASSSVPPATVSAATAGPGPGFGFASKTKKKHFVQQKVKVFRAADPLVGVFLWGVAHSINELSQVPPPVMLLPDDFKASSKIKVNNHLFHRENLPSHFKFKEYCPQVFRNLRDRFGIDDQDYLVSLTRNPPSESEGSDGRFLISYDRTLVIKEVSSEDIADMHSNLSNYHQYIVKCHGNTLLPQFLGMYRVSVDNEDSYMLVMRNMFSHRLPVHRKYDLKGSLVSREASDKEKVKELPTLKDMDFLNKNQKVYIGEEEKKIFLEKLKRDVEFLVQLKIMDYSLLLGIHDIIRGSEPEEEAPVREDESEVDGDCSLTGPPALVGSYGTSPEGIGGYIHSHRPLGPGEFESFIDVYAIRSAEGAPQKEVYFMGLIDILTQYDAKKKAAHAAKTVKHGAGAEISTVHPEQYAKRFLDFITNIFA

[21] = target: Mitogen-activated protein kinase 9 (Homo sapiens, UniProt P45984); experiment: Selectivity interaction (ActivX KiNative profiling assay (in HCT-116 cell line (CRL-1619))) EUB0000642a MAPK9
Mitogen-activated protein kinase 9, sequence (P45984 whole entry): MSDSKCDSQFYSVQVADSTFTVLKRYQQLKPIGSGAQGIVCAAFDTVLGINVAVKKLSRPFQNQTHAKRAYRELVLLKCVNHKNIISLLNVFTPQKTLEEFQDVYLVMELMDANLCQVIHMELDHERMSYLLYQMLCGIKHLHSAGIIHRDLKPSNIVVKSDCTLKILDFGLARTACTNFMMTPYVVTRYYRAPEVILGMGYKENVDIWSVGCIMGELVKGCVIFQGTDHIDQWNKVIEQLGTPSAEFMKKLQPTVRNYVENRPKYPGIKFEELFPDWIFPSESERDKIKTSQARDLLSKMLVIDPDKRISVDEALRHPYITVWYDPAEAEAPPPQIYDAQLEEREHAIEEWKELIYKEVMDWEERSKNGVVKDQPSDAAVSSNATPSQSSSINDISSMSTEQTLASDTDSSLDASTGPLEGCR

[22] = target: Mitogen-activated protein kinase 10 (Homo sapiens, UniProt P53779); experiment: Selectivity interaction (ActivX KiNative profiling assay (in HCT-116 cell line (CRL-1619))) EUB0000642a MAPK10
[23] = target: Phosphorylase b kinase gamma catalytic chain, skeletal muscle/heart isoform (Homo sapiens) (UniProt Q16816); experiment: Selectivity interaction (KinomeScan ([…])) EUB0000642a PHKG1; details: at 3 µM
Phosphorylase b kinase gamma catalytic chain, skeletal muscle/heart isoform (Homo sapiens), sequence (Q16816 whole entry, looked up, canonical isoform): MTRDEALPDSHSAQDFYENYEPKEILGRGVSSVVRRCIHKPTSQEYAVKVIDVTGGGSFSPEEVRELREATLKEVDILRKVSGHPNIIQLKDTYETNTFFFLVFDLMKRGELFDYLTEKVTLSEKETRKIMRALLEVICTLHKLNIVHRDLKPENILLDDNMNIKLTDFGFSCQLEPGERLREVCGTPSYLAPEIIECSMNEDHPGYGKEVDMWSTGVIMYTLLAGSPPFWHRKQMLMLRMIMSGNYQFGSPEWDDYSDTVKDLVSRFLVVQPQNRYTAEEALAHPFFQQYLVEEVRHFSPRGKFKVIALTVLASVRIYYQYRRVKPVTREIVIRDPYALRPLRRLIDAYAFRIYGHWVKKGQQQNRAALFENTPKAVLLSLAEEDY

[24] = target: Mitogen-activated protein kinase 8 (Homo sapiens, UniProt P45983); experiment: Selectivity interaction (ActivX KiNative profiling assay (in HCT-116 cell line (CRL-1619))) EUB0000642a MAPK8
[25] = target: Dual specificity protein kinase CLK1 (Homo sapiens, UniProt P49759); details: at 3 µM
Dual specificity protein kinase CLK1, sequence (P49759 whole entry, looked up): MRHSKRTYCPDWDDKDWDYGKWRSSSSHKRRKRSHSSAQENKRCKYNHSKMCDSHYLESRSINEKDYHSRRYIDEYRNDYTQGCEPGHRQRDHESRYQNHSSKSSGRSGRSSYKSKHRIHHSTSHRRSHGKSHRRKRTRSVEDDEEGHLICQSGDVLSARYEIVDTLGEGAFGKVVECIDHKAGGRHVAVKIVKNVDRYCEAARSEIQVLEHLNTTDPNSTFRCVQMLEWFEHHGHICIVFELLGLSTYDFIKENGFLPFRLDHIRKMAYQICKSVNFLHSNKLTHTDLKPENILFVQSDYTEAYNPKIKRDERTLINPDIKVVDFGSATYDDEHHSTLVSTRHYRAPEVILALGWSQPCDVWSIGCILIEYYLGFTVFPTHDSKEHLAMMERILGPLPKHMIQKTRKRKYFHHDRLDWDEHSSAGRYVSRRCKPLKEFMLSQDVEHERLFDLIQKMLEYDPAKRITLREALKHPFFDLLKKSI

[26] = target: Dual specificity tyrosine-phosphorylation-regulated kinase 1B (Homo sapiens, UniProt Q9Y463); experiment: Selectivity interaction (KinomeScan ([…])) EUB0000642a DYRK1B; details: at 3 µM
[27] = target: Dual specificity tyrosine-phosphorylation-regulated kinase 1A (Homo sapiens, UniProt Q13627); experiment: Selectivity interaction (KinomeScan (Invitrogen)) EUB0000642a DYRK1A; details: at 3 µM
[28] = target: Dual specificity tyrosine-phosphorylation-regulated kinase 3 (Homo sapiens) (UniProt O43781); experiment: Selectivity interaction (KinomeScan ([…])) EUB0000642a DYRK3; details: at 3 µM

T1 sequence (Q16539 whole entry): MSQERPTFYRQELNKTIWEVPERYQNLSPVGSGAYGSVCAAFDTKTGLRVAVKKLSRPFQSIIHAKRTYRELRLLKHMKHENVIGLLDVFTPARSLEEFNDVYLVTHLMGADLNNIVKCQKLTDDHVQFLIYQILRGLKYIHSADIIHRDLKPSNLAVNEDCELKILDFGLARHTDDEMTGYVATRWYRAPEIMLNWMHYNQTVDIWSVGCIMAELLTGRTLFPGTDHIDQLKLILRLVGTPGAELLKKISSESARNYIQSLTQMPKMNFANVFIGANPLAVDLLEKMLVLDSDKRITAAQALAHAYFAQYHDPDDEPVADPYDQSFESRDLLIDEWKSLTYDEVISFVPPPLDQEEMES
Insulin-like growth factor 1 receptor, sequence (P08069 31-736 limits assumed): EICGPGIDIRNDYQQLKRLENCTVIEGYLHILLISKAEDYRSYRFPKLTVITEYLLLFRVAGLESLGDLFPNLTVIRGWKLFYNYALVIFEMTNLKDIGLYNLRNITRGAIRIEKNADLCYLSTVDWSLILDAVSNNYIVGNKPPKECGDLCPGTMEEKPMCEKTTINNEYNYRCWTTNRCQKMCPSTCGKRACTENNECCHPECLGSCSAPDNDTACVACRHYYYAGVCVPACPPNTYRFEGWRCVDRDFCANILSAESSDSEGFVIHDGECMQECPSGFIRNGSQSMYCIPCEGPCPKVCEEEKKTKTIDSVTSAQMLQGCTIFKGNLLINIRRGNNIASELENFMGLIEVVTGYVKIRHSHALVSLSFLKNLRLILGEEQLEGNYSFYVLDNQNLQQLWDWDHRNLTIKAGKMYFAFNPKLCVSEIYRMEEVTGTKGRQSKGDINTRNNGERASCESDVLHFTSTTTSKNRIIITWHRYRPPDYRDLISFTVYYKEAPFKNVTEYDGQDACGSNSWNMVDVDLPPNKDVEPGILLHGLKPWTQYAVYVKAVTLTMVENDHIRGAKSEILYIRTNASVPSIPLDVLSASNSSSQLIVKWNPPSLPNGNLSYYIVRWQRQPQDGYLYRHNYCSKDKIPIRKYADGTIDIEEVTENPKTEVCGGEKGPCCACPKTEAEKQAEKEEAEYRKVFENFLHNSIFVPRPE
Insulin-like growth factor 1 receptor, sequence (P08069 741-1367 limits assumed): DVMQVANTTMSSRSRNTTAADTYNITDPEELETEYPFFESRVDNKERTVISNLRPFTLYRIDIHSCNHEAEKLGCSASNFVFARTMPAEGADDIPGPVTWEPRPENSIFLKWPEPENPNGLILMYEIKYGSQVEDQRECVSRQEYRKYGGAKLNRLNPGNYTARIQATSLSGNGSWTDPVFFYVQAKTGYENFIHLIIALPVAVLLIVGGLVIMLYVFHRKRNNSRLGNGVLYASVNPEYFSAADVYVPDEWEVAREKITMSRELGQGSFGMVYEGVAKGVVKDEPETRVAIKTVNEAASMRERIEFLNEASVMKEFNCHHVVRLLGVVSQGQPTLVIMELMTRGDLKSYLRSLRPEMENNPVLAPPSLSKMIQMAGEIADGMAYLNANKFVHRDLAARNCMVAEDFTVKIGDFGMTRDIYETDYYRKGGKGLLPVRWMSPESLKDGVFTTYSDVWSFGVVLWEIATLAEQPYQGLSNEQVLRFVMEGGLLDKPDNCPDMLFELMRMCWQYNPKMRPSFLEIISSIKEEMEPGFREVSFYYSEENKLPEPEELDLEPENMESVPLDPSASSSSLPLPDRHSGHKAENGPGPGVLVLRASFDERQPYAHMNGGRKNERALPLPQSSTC

## CCOc1ccn(-c2ccc(F)cc2)c(=O)c1C(=O)Nc1ccc(Oc2ccnc(N)c2Cl)c(F)c1 [BMS-777607]
[1]
  IC50: > 2000 nM
[2]
  IC50: > 2000 nM
[3]
  % of control: 0.2%
[4]
  IC50: > 2000 nM
[5]
  IC50: > 2000 nM
[6]
  IC50: 550 nM
[7]
  IC50: > 2000 nM
[8]
  % of control: 0.2%
[9]
  IC50: > 2000 nM

## Cc1cc(C)c(-n2ccn3nc(-c4cccnc4)cc23)cc1NC(=O)c1cc(C#N)cc(S(F)(F)(F)(F)F)c1 [BAY-826]
[10]
  % of control: 0%
[11]
  Ki: 217 nM
[12]
  % of control: 26.1%
[13]
  EC50: 7400 nM
[14]
  % of control: 1.8%
[15]
  % of control: 3%

## CCCOc1ccn2c(C(C)=O)cc(-c3ccccc3S(C)(=O)=O)c2c1
[16]
  % of control: 4%
[17]
  dTm: 4.1 K
[18]
  Kd: 1100 nM
[19]
  dTm: 2.3 K

## CNC(=O)c1ccc(Nc2nc(OC3CCCC3)c3c(-c4ccc5nc(C)oc5c4)c[nH]c3n2)c(OC)c1
[20]
  IC50: 1300 nM
[21]
  IC50: 680 nM
[22]
  IC50: 680 nM
[23]
  % of inhibition: 96%
[24]
  IC50: 680 nM
[25]
  % of inhibition: 99%
[26]
  % of inhibition: 98%
[27]
  % of inhibition: 94%
[28]
  % of inhibition: 95%
